Measured values as given in the SangsterLogP compilation.

Experiments:
[1] = method code SF-RC, from DOI: 10.1016/j.nucmedbio.2006.06.006, PMID: 16934700; details: pH 7.4
[2] = method code SF-AS, from DOI: 10.1007/bf00165040, PMID: 3033523; details: pH 7.4
[3] = method code SF-RC, from DOI: 10.1021/jm301492y, PMID: 23214511; details: pH 7.4
[4] = from Pratesi, P.; Villa, L.; Ferri, V.; DeMicheli, C.; Grana, E.; Grieco, C.; Silipo, C.; Vittoria, A. (1979). On the additive-constitutive properties of substituent hydrophobic parameters in a set of …
[5] = not given; remark: listed apart in the source
[6] = method code SF-AS, from DOI: 10.1021/jm00223a031, PMID: 810572
[7] = method code SF-GLC, from DOI: 10.1016/s0045-6535(02)00841-x, PMID: 12615110
[8] = not given; remark: listed apart in the source
[9] = method code SF-AS, from DOI: 10.1016/0147-6513(87)90041-8, PMID: 3830021
[10] = not given; remark: listed apart in the source
[11] = not given; remark: listed apart in the source
[12] = method code SF-AS, from DOI: 10.1021/jm00254a011, PMID: 4845376
[13] = method code SF-AS, from DOI: 10.1093/chemse/13.4.619; details: pH 7.2
[14] = not given; remark: listed apart in the source
[15] = method code SF-AS, from DOI: 10.1016/s0003-2670(01)80868-0
[16] = method code SF-AS, from PMID: 3699148; details: pH 7.4
[17] = method code SF-AS, from Dallet, P.; Dubost, J.; Colleter, J.; Audry, E.; Creuzet, M. (1985). QSAR in a series of alpha-adrenolitic molecules: optimization of physicochemical parameters. Eur J Med Chem, 20(6)551-557.
[18] = not given; remark: listed apart in the source
[19] = method code SF-AS, from DOI: 10.1007/bf02877675, PMID: 411721

Structure (SMILES): FCCNc1ccc(-c2cc3ccccc3s2)cc1
- logD [1]: 3.46

Structure (SMILES): Nc1ncnc2c1nc(Br)n2C1OC2COP(=O)(Oc3ccccc3)OC2C1O (centres undefined)
- logD [2]: 1.58

Structure (SMILES): CC(=O)Nc1c(I)c(C(=O)N(C)CC(O)CO)c(I)c(C(=O)N(C)CC(O)CO)c1I (centres undefined)
- logP: -2.14

Structure (SMILES): NC(=O)c1cccc(-c2cccc(C(=O)NC3CCCCC3)c2)c1
- logD [3]: 3.61

Structure (SMILES): CC(=O)CCC(=O)O
- logP [4]: -0.49

Structure (SMILES): CC(=O)Nc1c(I)c(C(=O)NC(CO)CO)c(I)c(C(=O)NC(CO)CO)c1I
- logP: -2.22

Structure (SMILES): CCC(C)(C)N
- logP [5]: 0.9

Structure (SMILES): Cc1ccnc2c(O)ccc(O)c12
- logP [6]: 1.59

Structure (SMILES): CCCCCCNC(=O)c1cccc(C2=NCCO2)c1
- logD [3]: 3.33

Structure (SMILES): FCCOc1ccc(-c2cc3ccccc3s2)cc1
- logD [1]: 2.83

Structure (SMILES): Brc1cc(Br)c(Oc2cc(Br)c(Br)cc2Br)cc1Br
- logP [7]: 7.9

Structure (SMILES): ClC(Cl)(Cl)C(Cl)(Cl)Cl
- logP [8]: 3.82

Structure (SMILES): N#CCCN(CCO)c1ccc(/N=N/c2ccc([N+](=O)[O-])cc2Cl)cc1
- logP [9]: 3.9

Structure (SMILES): c1ccc(-c2ccc(-c3ccccc3)cc2)cc1
- logP [10]: 6.03

Structure (SMILES): CCCCCCN1C(=O)NC(c2ccc(Br)cc2)(c2ccc(Br)cc2)C1=O
- logP [11]: 6.39

Structure (SMILES): Cc1ccc(O)c2ncccc12
- logP [6]: 2.37

Structure (SMILES): CC(C)(O)C(C)(C)O
- logP [5]: -0.05

Structure (SMILES): CC(C)(C)Sc1nc2c(N)ncnc2n1C1OC2COP(=O)(Oc3ccccc3)OC2C1O (centres undefined)
- logD [2]: 2.05

Structure (SMILES): Nc1cc(Cl)c(Cl)c(Cl)c1Cl
- logP [8]: 3.94

Structure (SMILES): Brc1ccsc1
- logP [10]: 2.59

Structure (SMILES): O=C1NCCN1c1ccc([N+](=O)[O-])o1
- logP [12]: 0.25

Structure (SMILES): c1ccc(-c2cccnc2)nc1
- logD [13]: 1.46

Structure (SMILES): O=C(CCCCN1CCC(O)(c2ccc(Cl)cc2)CC1)c1ccc(F)cc1
- logP [14]: 3.81

Structure (SMILES): O=C(NC1CCCC1)c1ccc(O)c(-c2ccccc2)c1
- logD [3]: 2.8

Structure (SMILES): O=c1cc(-c2ccccc2)oc2c1ccc1ccccc12
- logP [10]: 4.82

Structure (SMILES): CC(=O)CC(=O)C(C)(C)C
- logP [15]: 1.67

Structure (SMILES): OCCNc1ccccc1
- logP [4]: 0.82

Structure (SMILES): NC(=O)c1ccccc1NCC(O)CO (centres undefined)
- logD [16]: -0.8

Structure (SMILES): CCCN1C(=O)NC(c2ccccc2)(c2ccccc2)C1=O
- logP [11]: 2.86

Structure (SMILES): CCCCOCCNc1ccccc1C(N)=O
- logD [16]: 2.27

Structure (SMILES): Nc1ncnc2c1nc(SCc1ccccc1)n2[C@@H]1O[C@@H]2COP(=O)(O)O[C@H]2[C@H]1O
- logD [2]: -1.15

Structure (SMILES): COC(=O)c1cccnc1
- logD [13]: 0.72

Structure (SMILES): CC(O)CNc1ccccc1C(N)=O (centres undefined)
- logD [16]: 0.62

Structure (SMILES): CCn1c(O)c(C#N)c(C)c(/N=N/c2ccc(Cl)cc2[N+](=O)[O-])c1=O
- logP [9]: 3.4

Structure (SMILES): Brc1ccc(Oc2cc(Br)c(Br)cc2Br)c(Br)c1
- logP [7]: 7.32

Structure (SMILES): OC1(c2ccc(Cl)cc2)CCN(CCCSc2ccc(F)cc2)CC1
- logP [14]: 4.17

Structure (SMILES): O=C(NC1CCCC1)c1cccc(C2=NCCO2)c1
- logD [3]: 2.35

Structure (SMILES): O=C(NC1CCCCC1)c1cccc(C2=NCCO2)c1
- logD [3]: 3.01

Structure (SMILES): CSC1=NCCN1c1ccc([N+](=O)[O-])o1
- logP [12]: 1.19

Structure (SMILES): COc1cccc(OC)c1OCCN(C)CCOc1cc(C)c(O)cc1C(C)C
- logP [17]: 3.12

Structure (SMILES): Brc1ccc(Oc2ccc(Br)cc2Br)cc1
- logP [7]: 5.94

Structure (SMILES): CC(=O)N(CCO)c1c(I)c(C(=O)N(C)CC(O)CO)c(I)c(C(=O)N(C)CC(O)CO)c1I (centres undefined)
- logP: -2.33

Structure (SMILES): O=[N+]([O-])c1cccc(Cl)c1Cl
- logP [18]: 3.01

Structure (SMILES): C=CC#N
- logP [4]: 0.25

Structure (SMILES): Nc1ccc(-c2cc3ccccc3s2)cc1
- logD [1]: 2.87

Structure (SMILES): CC(C)C(=O)CC(=O)C(C)C
- logP [15]: 2.22

Structure (SMILES): Nc1ncnc2c1nc(Sc1ccccc1)n2C1OC2COP(=O)(OCc3ccccc3)OC2C1O (centres undefined)
- logD [2]: 1.92

Structure (SMILES): CC(=O)CC(C)=O
- logP [15]: 0.14

Structure (SMILES): O=C(NC1CCC1)c1ccc(O)c(-c2ccccc2)c1
- logD [3]: 3.42

Structure (SMILES): NC(=O)c1ccccc1NCCCO
- logD [16]: 0.7

Structure (SMILES): O=C(O)CCCC(=O)O
- logP [4]: -0.29

Structure (SMILES): O=[N+]([O-])c1cc(Cl)cc(Cl)c1
- logP [18]: 3.13

Structure (SMILES): OC(CCCN1CCC(O)(c2ccc(Cl)cc2)CC1)c1ccc(F)cc1 (centres undefined)
- logP [14]: 3.26

Structure (SMILES): O=C1NCCN1c1ncc([N+](=O)[O-])s1
- logP [12]: 0.91

Structure (SMILES): Cc1ccc(Cl)cc1
- logP [8]: 3.42

Structure (SMILES): CC(=O)Oc1cc(C(C)C)c(OCCN(C)C)cc1C
- logP [17]: 3.17

Structure (SMILES): CCCCCCN1C(=O)NC(Cc2c[nH]c3ccccc23)C1=O (centres undefined)
- logP [11]: 3.13

Structure (SMILES): CC(=O)N(CC(O)CO)c1c(I)c(C(=O)NCCO)c(I)c(C(=O)NCCO)c1I (centres undefined)
- logP: -1.84

Structure (SMILES): CSc1nc2c(N)ncnc2n1C1OC2COP(=O)(OCc3ccccc3)OC2C1O (centres undefined)
- logD [2]: 1.62

Structure (SMILES): Cc1ccc(Cl)cc1[N+](=O)[O-]
- logP [18]: 3.05

Structure (SMILES): O=C(CCN1CCC(O)(c2ccc(Cl)cc2)CC1)c1ccc(F)cc1
- logP [14]: 3.24

Structure (SMILES): CNCCOc1cc(C)c(O)cc1C(C)C
- logP [17]: 2.35

Structure (SMILES): O=C1NC(Cc2c[nH]c3ccccc23)C(=O)N1Cc1cccc2ccccc12 (centres undefined)
- logP [11]: 3.03

Structure (SMILES): CC(=O)Nc1cc(NCC(C)O)c(Cl)cc1/N=N/c1ccc([N+](=O)[O-])cc1Cl (centres undefined)
- logP [9]: 4

Structure (SMILES): Oc1ccc(-c2cc3ccccc3s2)cc1
- logD [1]: 2.99

Structure (SMILES): CCCCn1c(=O)c2c(N)c3c(=O)c4ccccc4c(=O)c3c(N)c2c1=O
- logP [9]: 4

Structure (SMILES): O=C1NC(c2ccc(Br)cc2)(c2ccc(Br)cc2)C(=O)N1CCN1CCOCC1
- logP [11]: 4.59

Structure (SMILES): CCCCC(CC)Cn1c(O)c(C#N)c(C)c(/N=N/c2ccccc2[N+](=O)[O-])c1=O (centres undefined)
- logP [9]: 4.5

Structure (SMILES): COc1ccc(O)c2nccc(C)c12
- logP [6]: 2.75

Structure (SMILES): CCC(=O)CC(=O)CC
- logP [15]: 1.12

Structure (SMILES): COC(=O)c1ccccn1
- logD [13]: 0.4

Structure (SMILES): CN(C)c1ccc(-c2cc3ccccc3s2)cc1
- logD [1]: 3.44

Structure (SMILES): c1ccc(-c2ccncc2)nc1
- logD [13]: 1.58

Structure (SMILES): c1ccc(C2CO2)cc1 (centres undefined)
- logP [4]: 1.84

Structure (SMILES): Cc1cc(OCCN(C)C)c(C(C)C)cc1OC1CCCCC1=O (centres undefined)
- logP [17]: 3.63

Structure (SMILES): OCCCCCO
- logP [5]: -0.43

Structure (SMILES): Brc1ccc(Oc2ccccc2Br)c(Br)c1
- logP [7]: 5.74

Structure (SMILES): Cc1ccc([N+](=O)[O-])cc1C
- logP [18]: 2.91

Structure (SMILES): CC(=O)N(CCO)c1c(I)c(C(=O)NCC(O)CO)c(I)c(C(=O)NCC(O)CO)c1I (centres undefined)
- logP: -2.4

Structure (SMILES): Cc1ccnc2c(O)ccc(C)c12
- logP [6]: 2.71

Structure (SMILES): CC(O)CCO (centres undefined)
- logP [5]: -0.79

Structure (SMILES): O=[N+]([O-])c1ccc(O)c([N+](=O)[O-])c1
- logP [10]: 1.79

Structure (SMILES): O/N=C/c1cccnc1
- logD [13]: 0.68

Structure (SMILES): Cc1cc(C)c(C)cc1C
- logP [10]: 4.24

Structure (SMILES): Cc1ccc(C(C)C)c(OCCN(C)C)c1
- logP [17]: 3.79

Structure (SMILES): CC(=O)N(C)c1c(I)c(C(=O)NCC(O)CO)c(I)c(C(=O)NCC(O)CO)c1I (centres undefined)
- logP: -2.13

Structure (SMILES): CC(C)CC(N)=O
- logP [5]: 0.19

Structure (SMILES): CC(=O)c1ccc(NN=C(C#N)C#N)cc1
- logP [19]: 2.17

Structure (SMILES): Cc1c(Cl)cccc1Cl
- logP [8]: 4.29

Structure (SMILES): CNc1ccc(-c2cc3ccccc3s2)cc1
- logD [1]: 3.2

Structure (SMILES): CCCCOCCNc1ccc(Cl)cc1C(N)=O
- logD [16]: 2.99

Structure (SMILES): CCCC(=O)CC(=O)CCC
- logP [15]: 2.23

Structure (SMILES): Nc1ccccc1Cl
- logP [8]: 1.74

Structure (SMILES): Brc1ccc(Oc2ccc(Br)c(Br)c2Br)c(Br)c1
- logP [7]: 7.37

Structure (SMILES): Cc1cc(OCCN(C)C)c(C(C)C)cc1O
- logP [17]: 2.93

Structure (SMILES): Nc1ccc(O)c2ncccc12
- logP [6]: -0.11

Structure (SMILES): CCCCCCCN1C(=O)NC(c2ccc(Br)cc2)(c2ccc(Br)cc2)C1=O
- logP [11]: 6.95

Structure (SMILES): CCCCN(CCOC(C)=O)c1ccc(/N=N/c2c(C#N)cc([N+](=O)[O-])cc2C#N)c(C)c1
- logP [9]: 4

Structure (SMILES): O=C(CCCCCN1CCC(O)(c2ccc(Cl)cc2)CC1)c1ccc(F)cc1
- logP [14]: 4.16

Structure (SMILES): Cc1cccc([N+](=O)[O-])c1C
- logP [18]: 2.83

Structure (SMILES): Oc1ccnc2c(O)cccc12
- logP [6]: 0.62

Structure (SMILES): Cc1ccccc1OCCNc1ccccc1C(N)=O
- logD [16]: 2.94

Structure (SMILES): Nc1ncnc2c1nc(Sc1ccc(Cl)cc1)n2C1OC2COP(=O)(OCc3ccccc3)OC2C1O (centres undefined)
- logD [2]: 2.24

Structure (SMILES): CC(C)c1ccc(C(=O)CCCN2CCC(O)(c3ccc(Cl)cc3)CC2)cc1
- logP [14]: 4.2
